These results are taken from patent US20230113037A1 (Bayer Aktiengesellschaft, priority 2019, published 2023).

Assay [1] has as its target T1, AHR (Mus musculus, UniProt P30561).
T1 sequence (P30561 1-848 P471L/N533S/M589L): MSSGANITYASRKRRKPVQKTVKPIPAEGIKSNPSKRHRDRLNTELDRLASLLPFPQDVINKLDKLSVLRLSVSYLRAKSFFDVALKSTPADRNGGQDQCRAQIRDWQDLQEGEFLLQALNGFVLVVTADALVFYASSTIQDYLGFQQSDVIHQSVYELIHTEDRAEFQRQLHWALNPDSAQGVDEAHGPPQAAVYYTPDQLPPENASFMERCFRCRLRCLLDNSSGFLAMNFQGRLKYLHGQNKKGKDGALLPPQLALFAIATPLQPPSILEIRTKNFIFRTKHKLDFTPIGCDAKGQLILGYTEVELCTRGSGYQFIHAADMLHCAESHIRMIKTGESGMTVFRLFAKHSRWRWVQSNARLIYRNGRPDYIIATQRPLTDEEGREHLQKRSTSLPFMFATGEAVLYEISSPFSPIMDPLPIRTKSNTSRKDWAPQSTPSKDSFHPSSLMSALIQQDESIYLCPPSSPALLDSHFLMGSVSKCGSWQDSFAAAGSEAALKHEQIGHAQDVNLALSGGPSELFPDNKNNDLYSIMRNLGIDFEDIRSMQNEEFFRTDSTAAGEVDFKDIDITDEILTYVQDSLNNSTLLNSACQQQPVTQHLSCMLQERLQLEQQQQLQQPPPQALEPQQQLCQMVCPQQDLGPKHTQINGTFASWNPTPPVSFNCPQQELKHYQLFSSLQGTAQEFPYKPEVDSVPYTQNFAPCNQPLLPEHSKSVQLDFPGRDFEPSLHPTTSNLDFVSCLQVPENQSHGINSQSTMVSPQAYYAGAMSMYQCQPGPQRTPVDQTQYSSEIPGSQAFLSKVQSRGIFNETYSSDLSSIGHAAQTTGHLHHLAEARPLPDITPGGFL
Nature of the assay: In vitro assay 3: antagonism in mouse cell line (AHR transactivation, firefly luciferase reporter, kynurenic acid prestimulated). The class given is cell-based. In short, it runs like this: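 Mouse cells stably carrying a DRE-driven, AHR-inducible firefly luciferase reporter were prestimulated with the endogenous agonist kynurenic acid before compound addition. Luciferase activity was measured by luminescence and normalized to positive and negative controls, with cells lacking kynurenic acid serving as full-inhibition control. Repeat tests are reported as mean or median.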
(In a reporter assay the amount or activity of a reporter protein is the signal.)

In assay [2] the target is T2, AHR (Homo sapiens, UniProt P35869).
T2 construct: U87 MG glioblastoma cells (ATCC #HTB-14) endogenously expressing AHR; endogenous in cells; host or cells: U87 MG glioblastoma cells (ATCC #HTB-14)
T2 sequence (P35869 11-848): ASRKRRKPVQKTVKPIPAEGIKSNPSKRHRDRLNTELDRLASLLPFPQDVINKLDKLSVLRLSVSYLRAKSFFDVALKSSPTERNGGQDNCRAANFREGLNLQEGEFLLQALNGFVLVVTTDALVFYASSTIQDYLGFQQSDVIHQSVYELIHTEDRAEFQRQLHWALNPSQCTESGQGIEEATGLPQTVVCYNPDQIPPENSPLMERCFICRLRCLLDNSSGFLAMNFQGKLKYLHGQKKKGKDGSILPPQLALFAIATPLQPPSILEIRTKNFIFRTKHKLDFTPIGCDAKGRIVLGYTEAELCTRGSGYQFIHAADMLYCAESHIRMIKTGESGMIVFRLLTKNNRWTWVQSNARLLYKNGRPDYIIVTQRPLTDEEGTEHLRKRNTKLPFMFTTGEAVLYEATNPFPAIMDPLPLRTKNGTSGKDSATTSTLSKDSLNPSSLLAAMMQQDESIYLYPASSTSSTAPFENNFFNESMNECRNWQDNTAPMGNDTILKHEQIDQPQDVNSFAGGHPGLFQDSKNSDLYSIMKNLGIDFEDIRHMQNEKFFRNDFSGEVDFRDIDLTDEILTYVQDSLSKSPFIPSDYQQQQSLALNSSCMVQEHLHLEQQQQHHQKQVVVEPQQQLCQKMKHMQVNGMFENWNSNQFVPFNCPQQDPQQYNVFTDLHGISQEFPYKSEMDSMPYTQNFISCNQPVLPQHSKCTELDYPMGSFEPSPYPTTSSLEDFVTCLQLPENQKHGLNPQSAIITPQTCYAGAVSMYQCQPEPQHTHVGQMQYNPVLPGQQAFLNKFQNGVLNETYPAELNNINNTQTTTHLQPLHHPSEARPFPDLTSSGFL
Nature of the assay: In vitro assay 1: antagonism in human cell line (AHR transactivation, firefly luciferase reporter, kynurenic acid prestimulated). Type of assay: cell-based. The following applies: AHR Antagonism Human IC50 [M]. In short, it runs like this: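 U87 MG + DRE-firefly/constitutive-Renilla stable reporters; kynurenic acid prestim; dual-luc read; Renilla = tox; normalized vs pos/neg controls (pos: 150 μM KYNA + 5 μM staurosporine).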

Setting [3] is: Hepa 1c1c7 cells, 200 μM kynurenic acid, 20 hours, firefly luciferase reporter, read-out: AHR Antagonism Mouse IC50.
Setting [4] is: mouse Hepa 1c1c7 cells, 200 μM kynurenic acid, 20 hours, read-out: AHR Antagonism Mouse IC50.

Where two headings read alike, the source gives them in different places.

One may read the IC50 as the concentration that inhibits the measured activity by half. Take `COc1ccc(-c2nc3c4cccc(Br)c4nc(N[C@H]4CNCCNC4=O)n3n2)cc1` [Example 972, (6S)-6-{[7-bromo-2-(4-methoxyphenyl)[1,2,4]triazolo[1,5-c]quinazolin-5-yl]amino}-1,4-diazepan-5-one]: the IC50 in assay [1] (setting [3]) came out at 7.12 nM; in assay [2] (firefly luciferase reporter), 3.09e-08 M.

For the molecule `CCCNC(=O)[C@@H](C)Nc1nc2ccccc2c2nc(-c3ccncc3F)nn12` [Example 487, N^2-[2-(3-fluoropyridin-4-yl)[1,2,4]triazolo[1,5-c]quinazolin-5-yl]-N-propyl-D-alaninamide], the IC50 in assay [1] (setting [4]) was 200 nM; in assay [2], 3.26e-07 M.

Take `O=C1NCCCC[C@H]1Nc1nc2ccccc2c2nc(-c3ccco3)nn12` [Example 130, (3R)-3-{[2-(furan-2-yl)[1,2,4]triazolo[1,5-c]quinazolin-5-yl]amino}azepan-2-one]: the IC50 was 5.82 nM in assay [1] (setting [4]) and 4.55e-09 M in assay [2].

For the molecule `Cc1cccc(-c2nc3c4ccccc4nc(N[C@@H]4CCCCNC4=O)n3n2)c1` [Example 53, (3R)-3-{[2-(3-methylphenyl)[1,2,4]triazolo[1,5-c]quinazolin-5-yl]amino}azepan-2-one], the concentration for half-maximal inhibition (IC50) was found to be 5.28 nM in assay [1] (setting [4]) and 1.16e-08 M in assay [2].

Consider `COc1ccc(-c2nc3c4cccc(Br)c4nc(N[C@H](C)C(=O)O)n3n2)cc1` [Example 870], for which the IC50 in assay [1] (setting [3]) stood at 10.7 nM; in assay [2] (firefly luciferase reporter), 1.09e-08 M.

Consider `CCCNC(=O)[C@H](CC)Nc1nc2c(Br)cccc2c2nc(-c3ccc(Cl)cc3OC(F)F)nn12` [Example 683, (2S)-2-({7-bromo-2-[4-chloro-2-(difluoromethoxy)phenyl][1,2,4]triazolo[1,5-c]quinazolin-5-yl}amino)-N-propylbutanamide], for which the IC50 was 16.6 nM in assay [1] (setting [4]) and above 5.71e-07 M in assay [2].

On to `O=C1NCCCC[C@@H]1Nc1nc2ccccc2c2nc(-c3ccccc3OC(F)F)nn12` [Example 471, (3S)-3-({2-[2-(difluoromethoxy)phenyl][1,2,4]triazolo[1,5-c]quinazolin-5-yl}amino)azepan-2-one], for which the IC50 in assay [1] (setting [4]) is 5.26 nM; in assay [2], 5.6e-08 M.

With `O=C1NCC[C@H]1Nc1nc2ccccc2c2nc(-c3ccccc3OC(F)F)nn12` [Example 473, (3R)-3-({2-[2-(difluoromethoxy)phenyl][1,2,4]triazolo[1,5-c]quinazolin-5-yl}amino)pyrrolidine-2-one], the IC50 in assay [1] (setting [4]) turned out to be 17.9 nM; in assay [2], 5.1e-08 M.

`CCn1cc(-c2nc3c4cccc(SC)c4nc(N[C@@H]4CCCCNC4=O)n3n2)c(C)n1` [Example 772, (3R)-3-{[2-(1-ethyl-3-methyl-1H-pyrazol-4-yl)-7-(methylsulfanyl)[1,2,4]triazolo[1,5-c]quinazolin-5-yl]amino}azepan-2-one]: the IC50 in assay [1] (setting [4]) amounted to 51.3 nM; in assay [2], 3.61e-09 M.

Regarding `O=C1NCCCC[C@H]1Nc1nc2c(C(F)(F)F)cccc2c2nc(-c3cc[nH]n3)nn12` [Example 737, (3R)-3-{[2-(1H-pyrazol-3-yl)-7-(trifluoromethyl)[1,2,4]triazolo[1,5-c]quinazolin-5-yl]amino}azepan-2-one], the IC50 turned out to be 15.1 nM in assay [1] (setting [4]) and 7.64e-09 M in assay [2].

`Cc1cscc1-c1nc2c3ccccc3nc(N[C@@H]3CCCNC3=O)n2n1` [Example 540]: the IC50 turned out to be 6.24 nM in assay [1] (setting [4]) and 6.05e-08 M in assay [2].

In the case of `Cn1cc(-c2nc3c4cccc(Br)c4nc(N[C@@H]4CSCCNC4=O)n3n2)cn1` [Example 837, (6S)-6-{[7-bromo-2-(1-methyl-1H-pyrazol-4-yl)[1,2,4]triazolo[1,5-c]quinazolin-5-yl]amino}-1,4-thiazepan-5-one], the IC50 in assay [1] (setting [3]) amounted to 1.81 nM; in assay [2] (firefly luciferase reporter) it was 7.6e-10 M.

With `O=C1NCCCC[C@H]1Nc1nc2ccccc2c2nc(-c3cnn(C4CCC4)c3)nn12` [Example 603, (3R)-3-{[2-(1-cyclobutyl-1H-pyrazol-4-yl)[1,2,4]triazolo[1,5-c]quinazolin-5-yl]amino}azepan-2-one], the results for the IC50 in assay [1] (setting [4]) and in assay [2] were 3.39 nM and 4.08e-09 M, respectively.

On to `COc1ccc(-c2nc3c4cccc(OCCC(C)(C)O)c4nc(N[C@@H]4CCCCNC4=O)n3n2)cc1` [Example 1000, (3R)-3-{[7-(3-hydroxy-3-methylbutoxy)-2-(4-methoxyphenyl)[1,2,4]triazolo[1,5-c]quinazolin-5-yl]amino}azepan-2-one], for which the IC50 in assay [1] (setting [3]) worked out at 8.3 nM; in assay [2] (firefly luciferase reporter) it was 9.07e-09 M.

Regarding `CS(=N)(=O)c1ccccc1-c1nc2c3ccccc3nc(N[C@@H]3CCCCNC3=O)n2n1` (single isomer, unassigned) [Example 661], the IC50 in assay [1] (read-out: AHR Antagonism Mouse IC50, mouse Hepa 1c1c7 cells, 200 μM kynurenic acid, 20 hours) was found to be 139 nM; in assay [2], 1.53e-07 M.

On to `CNC(=O)[C@@H](C)Nc1nc2ccccc2c2nc(-c3cccc(OC)c3)nn12` [Example 108, N^2-[2-(3-methoxyphenyl)[1,2,4]triazolo[1,5-c]quinazolin-5-yl]-N-methyl-D-alaninamide], for which the half-maximal inhibitory concentration (IC50) in assay [1] (setting [4]) stood at 3.58 nM; in assay [2], 5.75e-09 M.

In the case of `Cn1cc(-c2nc3c4cccc(Cl)c4nc(N[C@@H]4CNCCNC4=O)n3n2)cn1` [Example 253, (6R)-6-{[7-Chloro-2-(1-methyl-1H-pyrazol-4-yl)[1,2,4]triazolo[1,5-c]quinazolin-5-yl]amino}-1,4-diazepan-5-one], the IC50 worked out at 36.8 nM in assay [1] (setting [4]) and 2.71e-08 M in assay [2].

Consider `COc1cccc(-c2nc3c4ccccc4nc(NC4CNCCNC4=O)n3n2)c1` (single isomer, unassigned) [Example 116, 6-{[2-(3-methoxyphenyl)[1,2,4]triazolo[1,5-c]quinazolin-5-yl]amino}-1,4-diazepan-5-one], for which the IC50 in assay [1] (setting [4]) was 73.3 nM; in assay [2] it was 2.75e-06 M.

As to `CC[C@@H](Nc1nc2ccccc2c2nc(-c3ccc(OC)cc3OC(F)(F)F)nn12)C(N)=O` [Example 511, (2R)-2-({2-[4-methoxy-2-(trifluoromethoxy)phenyl][1,2,4]triazolo[1,5-c]quinazolin-5-yl}amino)butanamide], the values for the IC50 in assay [1] (setting [4]) and in assay [2] were 1.4 nM and 7.5e-09 M, respectively.

Consider `COc1ccc(-c2nc3c4cc(Br)ccc4nc(N[C@@H]4CCCCNC4=O)n3n2)cc1` [Example 242, (3R)-3-{[9-bromo-2-(4-methoxypheny)[1,2,4]triazolo[1,5-c]quinazolin-5-yl]amino}azepan-2-one], for which the IC50 in assay [1] (setting [4]) stood at 3.02 nM; in assay [2] it was 3.06e-09 M.

With `CC[C@@H](Nc1nc2ccccc2c2nc(-c3ccccc3S(C)(=O)=O)nn12)C(N)=O` [Example 451, (2R)-2-({2-[2-(methanesulfonyl)phenyl][1,2,4]triazolo[1,5-c]quinazolin-5-yl}amino)butanamide], the half-maximal inhibitory concentration (IC50) in assay [1] (setting [4]) was 131 nM; in assay [2] it was 7.16e-06 M.

In the case of `Cn1cc(-c2nc3c4c(Br)cccc4nc(N[C@@H]4CCCCNC4=O)n3n2)cn1` [Example 165, (3R)-3-{[10-bromo-2-(1-methyl-1H-pyrazol-4-yl)[1,2,4]triazolo[1,5-c]quinazolin-5-yl]amino}azepan-2-one], the 50% inhibitory concentration (IC50) in assay [1] (setting [4]) turned out to be 98.6 nM; in assay [2], 1.65e-08 M.
